Data on 56 molecules can be found in PMC7802075 (ACS Infectious Diseases, 2020).

Where two headings read alike, the source gives them in different places. Where a SMILES comes first, the peptide text is derived from it.

The target in the test is T1, LmjIPCS (inositol phosphorylceramide synthase from L. major) (Leishmania major, UniProt E9AFX2).
T1 sequence (E9AFX2 1-338): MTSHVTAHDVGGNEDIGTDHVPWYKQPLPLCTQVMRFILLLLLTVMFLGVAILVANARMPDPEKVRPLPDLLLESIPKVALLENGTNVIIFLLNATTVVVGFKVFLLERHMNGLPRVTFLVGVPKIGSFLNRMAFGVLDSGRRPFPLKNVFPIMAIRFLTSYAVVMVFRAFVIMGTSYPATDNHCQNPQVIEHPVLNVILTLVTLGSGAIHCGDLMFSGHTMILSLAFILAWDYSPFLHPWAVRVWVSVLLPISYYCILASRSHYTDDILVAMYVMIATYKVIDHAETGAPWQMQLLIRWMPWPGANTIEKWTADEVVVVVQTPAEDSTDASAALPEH
In words: biochemical. Type of test: biochemical. Also on record: inhibition: dose or concentration left out as unconfirmed. The conditions noted are these: for inhibition at 20000 µM: read-out: 20mM inhibition LmjIPCS; for inhibition: read-out: inhibition LmjIPCS.

Setting [1] is: NINDS set screen, single concentration printed as 20mM.
Where [2] appears, read: screening of NINDS set, sheet Screen 1.

Take `Nc1ccc(S(=O)(=O)Nc2nccs2)cc1` [SULFATHIAZOLE]: under setting [1], the “20mM inhibition LmjIPCS” value is 35%.

Turning to `Cc1[nH]ccc2c1[nH]c1cc(=O)ccc12` [HARMOL], the inhibition at 20000 µM turned out to be 15%.

Turning to `COc1ccc(/C=C/C(=O)Nc2ccccc2C(=O)O)cc1OC`, the inhibition under setting [2] was determined as 6.57%.

As for `CN(C)CCC=C1c2ccccc2C=Cc2ccccc21` [CYCLOBENZAPRINE], the inhibition at 20000 µM was -2.37%.

Consider `COc1ccc(-c2cc(C(F)F)nn2-c2ccc(S(N)(=O)=O)cc2)cc1F` [DERACOXIB], for which the inhibition at 20000 µM was 28%.

Regarding `CCCNCC(O)COc1ccccc1C(=O)CCc1ccccc1` (centres unmarked) [PROPAFENONE], the “20mM inhibition LmjIPCS” value is 61%.

Consider `Nc1nc(N)c2nc(-c3ccccc3)c(N)nc2n1`, for which the “20mM inhibition LmjIPCS” value under setting [1] came out at 36%.

In the case of `NS(=O)(=O)c1cc2c(cc1C(F)(F)F)NC(Cc1ccccc1)NS2(=O)=O` (centres unmarked) [BENDROFUMETHIAZIDE], the “20mM inhibition LmjIPCS” value amounted to 63%.

With `CC1=C(/C=C/C(C)=C/C=C/C(C)=C/CO)C(C)(C)CCC1` [RETINOL], the inhibition (NINDS set screen) was found to be 21%.

Regarding `O=C(c1ccccc1)c1ccc2n1CCC2C(=O)O` (centres unmarked) [KETOROLAC], under “NINDS set screen”, the inhibition amounted to 20%.

On to `C[C@]12CCC3c4ccc(OS(=O)(=O)[O-])cc4CCC3C1CC[C@H]2O.[Na+]` (some centres unmarked) [ESTRADIOL-3-SULFATE, SODIUM SALT], for which the “20mM inhibition LmjIPCS” value was 5.4%.

As to `CC(=O)OCC(COC(C)=O)OC(C)=O` [TRIACETIN], the inhibition (NINDS set screen) amounted to 29%.

As for `COc1ccc(C[C@H](N)C(=O)N[C@H]2[C@@H](O)[C@H](n3cnc4c(N(C)C)ncnc43)O[C@@H]2CO)cc1` [PUROMYCIN], the inhibition was found to be 20%.

For the molecule `COC(=O)[C@H]1[C@H]2C[C@H]3c4[nH]c5ccccc5c4CCN3C[C@H]2CC[C@@H]1O` [RAUWOLSCINE], the inhibition came out at 12%.

With `CC(C)COCC(CN(Cc1ccccc1)c1ccccc1)N1CCCC1` (centres unmarked) [BEPRIDIL], the “20mM inhibition LmjIPCS” value turned out to be 61%.

Take `CC(=O)Oc1c(C)c(C)c2c(c1C)CCC(C)(CCC[C@H](C)CCC[C@H](C)CCCC(C)C)O2` (stereo partly drawn) [alpha-TOCOPHERYL ACETATE]: the inhibition at 20000 µM is -0.425%.

As for `CC(C)C[C@H](N)C(=O)N[C@@H](C)C(=O)O` [L-LEUCYL-L-ALANINE] (H-Leu-Ala-OH), the “20mM inhibition LmjIPCS” value was 5.46%.

For `COc1ccc(C(C)=O)c(O)c1` [PAEONOL], the inhibition at 20000 µM was found to be 9%.

On to `COc1cc([C@@H]2c3cc4c(cc3[C@H](O)[C@H]3COC(=O)[C@@H]23)OCO4)cc(OC)c1OC` [PICROPODOPHYLLOTOXIN], for which the inhibition at 20000 µM was found to be 7.47%.

Turning to `C[C@@H]1O[C@@H](O[C@H]2CC[C@]3(C=O)[C@H]4CC[C@]5(C)[C@@H](C6=CC(=O)OC6)CC[C@]5(O)[C@@H]4CC[C@]3(O)C2)[C@H](O)[C@H](O)[C@H]1O` [CONVALLATOXIN], the inhibition at 20000 µM was determined as 16%.

Regarding `Oc1ccc(Cl)c2cccnc12` [CLOXYQUIN], the “20mM inhibition LmjIPCS” value under setting [1] is 59%.

In the case of `COc1ccc(C(=O)O[C@H]2CC[C@@]3(C)[C@@H]4CC[C@H]5[C@]6(O)C[C@H](O)[C@@]7(O)[C@@H](CN8C[C@@H](C)CC[C@H]8[C@@]7(C)O)[C@]6(O)C[C@@]53O[C@]24O)cc1OC` [VERATRIDINE], the inhibition at 20000 µM was found to be 11%.

Turning to `CC(C)(C)CC(C)(C)c1ccc(O)c(Cc2ccc(Cl)cc2Cl)c1` [CLOFOCTOL], the “20mM inhibition LmjIPCS” value under setting [1] was determined as 65%.

In the case of `N=C(N)NC(=O)c1nc(Cl)c(N2CCCCCC2)nc1N` [N,N-HEXAMETHYLENEAMILORIDE], the “20mM inhibition LmjIPCS” value under setting [1] is 65%.

As for `COc1cnc(NS(=O)(=O)c2ccc(N)cc2)nc1`, the inhibition at 20000 µM was 21%.

As for `CCCCOC(=O)c1ccc(N)cc1` [BUTAMBEN], the inhibition (NINDS set screen) was 14%.

`Cc1ncc(CNC(=O)N(CCCl)N=O)c(N)n1` [NIMUSTINE]: the inhibition at 20000 µM was found to be 20%.

As to `c1ccc(-c2ccc(C(c3ccccc3)n3ccnc3)cc2)cc1` (centres unmarked) [BIFONAZOLE], the “20mM inhibition LmjIPCS” value is 52%.

Turning to `O=C(CCc1ccc(O)cc1)c1c(O)cc(O)cc1O[C@@H]1O[C@H](CO)[C@@H](O)[C@H](O)[C@H]1O` [PHLORIDZIN], under “NINDS set screen”, the inhibition turned out to be 15%.

In the case of `CC1CCc2cc(F)cc3c(=O)c(C(=O)O)cn1c23` (centres unmarked) [FLUMEQUINE], the inhibition at 20000 µM turned out to be 5%.

Regarding `CON` [METHOXYAMINE], the “20mM inhibition LmjIPCS” value was determined as 12%.

In the case of `CN[C@@H](C)[C@H](O)c1ccccc1` [EPHEDRINE (1R,2S)], the “20mM inhibition LmjIPCS” value amounted to 8%.

Regarding `CC(C)c1nc(N(C)S(C)(=O)=O)nc(-c2ccc(F)cc2)c1/C=C/[C@@H](O)C[C@@H](O)CC(=O)O` [ROSUVASTATIN], the inhibition (NINDS set screen) was found to be 12%.

On to `NCC(CC(=O)O)c1ccc(Cl)cc1` (centres unmarked) [BACLOFEN], for which the “20mM inhibition LmjIPCS” value is reported as 50%.

With `C#C[C@]1(O)CC[C@H]2[C@@H]3CCc4cc(O)ccc4[C@H]3CC[C@@]21C` [ETHINYL ESTRADIOL], where the note is “NINDS set screen”, the inhibition is -11%.

Regarding `Nc1ccn([C@@H]2O[C@H](CO)[C@@H](O)[C@@H]2O)c(=O)n1` [CYTARABINE], the inhibition was -1.69%.

For the molecule `C=CCSCC=C` [DIALLYL SULFIDE], the inhibition (NINDS set screen) is 17%.

Turning to `O=C(O)c1cc2ccccc2[nH]1` [INDOLE-2-CARBOXYLIC ACID], the inhibition under setting [2] is 8%.

Take SPIRAMYCIN: the “20mM inhibition LmjIPCS” value (single concentration 20mM as printed, screening of NINDS set, sheet Screen 1) worked out at 10%.

Regarding `CCCCC(=O)N(Cc1ccc(-c2ccccc2-c2nnn[nH]2)cc1)[C@H](C(=O)O)C(C)C`, the inhibition amounted to 20%.

As to `CC(=O)N1CCCC1C(=O)O` (centres unmarked) [N-ACETYLPROLINE], the inhibition (NINDS set screen) is -1.28%.

In the case of `NC(=O)N/N=C/c1ccc([N+](=O)[O-])o1` [NITROFURAZONE], the inhibition at 20000 µM worked out at 14%.

As to `COC(=O)C1=CCCN(C)C1` [ARECOLINE], the inhibition at 20000 µM is -3.74%.

Regarding `N[C@H]1C(O)O[C@H](CO)[C@@H](O)[C@@H]1O` (some centres unmarked) [GLUCOSAMINE], the inhibition at 20000 µM stood at 10%.

For the molecule `C[C@H]1C(=O)O[C@@H]2CCN3CC=C(COC(=O)[C@](C)(O)[C@]1(C)O)[C@H]23` [MONOCROTALINE], the inhibition at 20000 µM was found to be 2%.

As to `CC(=O)N[C@@H](Cc1c[nH]c2ccccc12)C(=O)O` [ACETYLTRYPTOPHAN], the inhibition at 20000 µM is -17%.

For the molecule `O=C1C=C2C=C[C@@H]3C[C@@]2(O1)[C@H]1CCCCN31` [SECURININE], the inhibition at 20000 µM turned out to be 11%.

With 1R,2S-PHENYLPROPYLAMINE, the “20mM inhibition LmjIPCS” value is given as -2.19%.

In the case of `CCN1CCCC(OC(=O)C(c2ccccc2)c2ccccc2)C1` (centres unmarked) [PIPERIDOLATE], the “20mM inhibition LmjIPCS” value is reported as 39%.

As to `NNC(=O)c1ccncc1` [ISONIAZID], under setting [2], the inhibition is 9%.

With `O=C1C[C@@H]2OCC=C3CN4CC[C@]56c7ccccc7N1[C@H]5[C@H]2[C@H]3C[C@H]46` [STRYCHNINE], the inhibition at 20000 µM came to 3%.

On to `C/C=C(/C(=C/C)c1ccc(O)cc1)c1ccc(O)cc1` [DIENESTROL], for which the inhibition at 20000 µM was -4%.

With `Nc1c(Br)cc(Br)cc1CN[C@H]1CC[C@H](O)CC1` [AMBROXOL], the “20mM inhibition LmjIPCS” value turned out to be 53%.

Regarding `CC(=O)OCC(=O)[C@@]1(O)[C@H](OC(C)=O)C[C@H]2[C@@H]3CCC4=CC(=O)C=C[C@]4(C)[C@@]3(F)[C@@H](O)C[C@@]21C` [TRIAMCINOLONE DIACETATE], the inhibition at 20000 µM was determined as 10%.

On to `Cc1ccc(Cl)c(Nc2ccccc2C(=O)O)c1Cl` [MECLOFENAMATE], for which the inhibition at 20000 µM was found to be 6%.

For `CCOC(=O)n1ccn(C)c1=S` [CARBIMAZOLE], the inhibition was found to be 12%.

By inhibition is commonly meant the drop in the measured response relative to a control, in per cent.
